# Source: US20100305120A1, “COMPOUNDS FOR TREATING MUSCULAR DYSTROPHY” (BIOMARIN IGA LIMITED, priority 2008, published 2010)
# Test system: Utrophin A promoter linked to a luciferase reporter gene
# Experiment: Luciferase reporter assay (murine H2K cells), H2K/mdx/Utro A reporter cell line
# Format: cell-based
# Conditions: 48 h; test compound concentration 0.3 μM; mdx mouse H2K Utrophin A reporter cells; read-out: Activity (luciferase level relative to control)
# Experimental: Luciferase Reporter Assay (Murine H2K Cells)
# The cell line used for the screen is an immortalized mdx mouse H2K cell line that has been stably transfected with a plasmid containing ≈5 kb fragment of the Utrophin A promoter including the first untranslated exon linked to a luciferase reporter gene.
# Under conditions of low temperature and interferon containing media, the cells remain as myoblasts. These are plated into 96 well plates and cultured in the presence of compound for three days. The level of luciferase is then determined by cell lysis and reading of the light output from the expressed luciferase gene utilising a plate luminometer.
# Luciferase Assay for 96 Well Plates
# The H2K/mdx/Utro A reporter cell line cells were plated out into 96 well plates (Falcon 353296, white opaque) at a density of approximately 5000 cells/well in 190 μl normal growth medium. The plates were then incubated at 33° C. in the presence of 10% CO2 for 24 hrs.
# Compounds were dosed by adding 10 μl of diluted compound to each well giving a final concentration of 10 μM (where a different final concentration was required, the amount of compound solution added was amended accordingly). The plates were then incubated for a further 48 hrs. Cells were then lysed in situ following the manufacture's protocols (Promega Steady-Glo Luciferase Assay System(E2520). Then counted for 10 seconds using a plate luminometer (Victor1420).
# Compounds for screening were stored at −20° C. as 10 mM stocks in 100% DMSO until required.
# Biological activity as assessed using the luciferase reporter assay in murine H2K cells, and the results are shown in Table 1, which also lists the concentration of the test compound solution in μM.
row,SMILES,activity at 0.3 µM [%]
1,"CS(=O)(=O)c1ccc(Cn2nc(CNc3ccc4c(c3)OCO4)c3ccccc32)cc1 [Compound 90, N-((1-(4-(methylsulfonyl)benzyl)-1H-indazol-3-yl)methyl)benzo[d][1,3]dioxol-5-amine]",< 200

# Same assay, conditions: 48 h; test compound concentration 3 μM; mdx mouse H2K Utrophin A reporter cells; read-out: Activity (luciferase level relative to control)
row,SMILES,activity at 3 µM [%]
1,"CS(=O)(=O)c1ccc(Cn2nc(C(=O)Nc3ccc(O)cc3)c3ccccc32)cc1 [Compound 88, N-(4-hydroxyphenyl)-1-(4-(methylsulfonyl)benzyl)-1H-indazole-3-carboxamide]",< 200
2,"O=C(Nc1ccc2c(c1)OCO2)c1nn(CCc2ccc(C(=O)N3CCOCC3)cc2)c2ccccc12 [Compound 92, N-(benzo[d][1,3]dioxol-5-yl)-1-(4-(morpholine-4-carbonyl)phenethyl)-1H-indazole-3-carboxamide]",< 200

# Same assay, conditions: 48 h; test compound concentration 10 μM; mdx mouse H2K Utrophin A reporter cells; read-out: Activity (luciferase level relative to control)
row,SMILES,activity at 10 µM [%]
1,"COc1cccc(OCc2ccc(Cn3nc(NC(=O)Nc4ccccc4OC(F)(F)F)c4ccccc43)cc2)c1 [Compound 68, 1-(1-(4-((3-methoxyphenoxy)methyl)benzyl)-1H-indazol-3-yl)-3-(2-(trifluoromethoxy)phenyl)urea]",< 200
2,"O=C(Nc1ccc(N2CCCCC2)cc1)c1nn(Cc2ccc(-c3ccccc3)cc2)c2ccccc12 [Compound 69, 1-(biphenyl-4-ylmethyl)-N-(4-(piperidin-1-yl)phenyl)-1H-indazole-3-carboxamide]",< 200
3,"CC(C)(C)c1ccc(Cn2nc(C(=O)Nc3ccc(OC(F)(F)F)cc3)c3ccccc32)cc1 [Compound 70, 1-(4-tert-butylbenzyl)-N-(4-(trifluoromethoxy)phenyl)-1H-indazole-3-carboxamide]",< 200
4,"O=C(Nc1nccs1)c1nn(CCOc2ccccc2)c2ccccc12 [Compound 71, 1-(2-phenoxyethyl)-N-(thiazol-2-yl)-1H-indazole-3-carboxamide]",< 200
5,"O=C(NCC1CCCO1)c1nn(Cc2ccc(C(=O)N3CCOCC3)cc2)c2ccccc12 (centres unmarked) [Compound 72, 1-(4-(morpholine-4-carbonyl)benzyl)-N-((tetrahydrofuran-2-yl)methyl)-1H-indazole-3-carboxamide]",< 200
6,"COc1ccc(CCNC(=O)Nc2nn(Cc3ccc(C(F)(F)F)cc3)c3ccccc23)cc1OC [Compound 73, 1-(3,4-dimethoxyphenethyl)-3-(1-(4-(trifluoromethyl)benzyl)-1H-indazol-3-yl)urea]",< 200
7,"COc1ccc(NC(=O)c2nn(Cc3ccc(-c4ccccc4)cc3)c3ccccc23)cc1 [Compound 74, 1-(biphenyl-4-ylmethyl)-N-(4-methoxyphenyl)-1H-indazole-3-carboxamide]",< 200
8,"O=C(Nc1ccc(N2CCCCC2)cc1)c1nn(CCOc2ccccc2)c2ccccc12 [Compound 75, 1-(2-phenoxyethyl)-N-(4-(piperidin-1-yl)phenyl)-1H-indazole-3-carboxamide]",201 to 300
9,"C#CCN(C)S(=O)(=O)c1ccc(Cn2nc(C(=O)Nc3ccc(C(N)=O)cc3)c3ccccc32)cc1 [Compound 76, N-(4-carbamoylphenyl)-1-(4-(N-methyl-N-(prop-2-ynyl)sulfamoyl)benzyl)-1H-indazole-3-carboxamide]",< 200
10,"CS(=O)(=O)c1ccc(Cn2nc(C(=O)Nc3ccccn3)c3ccccc32)cc1 [Compound 77, 1-(4-(methylsulfonyl)benzyl)-N-(pyridin-2-yl)-1H-indazole-3-carboxamide]",< 200
11,"COc1ccccc1CNC(=O)Nc1nn(Cc2cc3c(cc2Cl)OCO3)c2ccccc12 [Compound 78, 1-(1-((6-chlorobenzo[d][1,3]dioxol-5-yl)methyl)-1H-indazol-3-yl)-3-(2-methoxybenzyl)urea]",< 200
12,"CC(C)(C)c1ccc(Cn2nc(C(=O)Nc3ccc(N4CCCCC4)cc3)c3ccccc32)cc1 [Compound 79, 1-(4-tert-butylbenzyl)-N-(4-(piperidin-1-yl)phenyl)-1H-indazole-3-carboxamide]",< 200
13,"COc1ccc(CCNC(=O)Nc2nn(Cc3ccc(COc4cccc(OC)c4)cc3)c3ccccc23)cc1 [Compound 80, 1-(4-methoxyphenethyl)-3-(1-(4-((3-methoxyphenoxy)methyl)benzyl)-1H-indazol-3-yl)urea]",< 200
14,"CC(C)(C)c1ccc(NC(=O)c2nn(Cc3ccc(S(C)(=O)=O)cc3)c3ccccc23)cc1 [Compound 81, N-(4-tert-butylphenyl)-1-(4-(methylsulfonyl)benzyl)-1H-indazole-3-carboxamide]",< 200
15,"COc1ccc(NC(=O)c2nn(Cc3ccc(S(C)(=O)=O)cc3)c3ccccc23)cc1OC [Compound 82, N-(3,4-dimethoxyphenyl)-1-(4-(methylsulfonyl)benzyl)-1H-indazole-3-carboxamide]",< 200
16,"CS(=O)(=O)c1ccc(Cn2nc(C(=O)Nc3ccccc3)c3ccccc32)cc1 [Compound 83, N-phenyl-1-(4-(methylsulfonyl)benzyl)-1H-indazole-3-carboxamide]",< 200
17,"CCc1ccc(NC(=O)c2nn(Cc3ccc(S(C)(=O)=O)cc3)c3ccccc23)cc1 [Compound 84, N-(4-ethylphenyl)-1-(4-(methylsulfonyl)benzyl)-1H-indazole-3-carboxamide]",301 to 400
18,"CC(C)c1ccccc1NC(=O)c1nn(Cc2ccc(S(C)(=O)=O)cc2)c2ccccc12 [Compound 85, N-(2-isopropylphenyl)-1-(4-(methylsulfonyl)benzyl)-1H-indazole-3-carboxamide]",< 200
19,"COc1cccc(NC(=O)c2nn(Cc3ccc(S(C)(=O)=O)cc3)c3ccccc23)c1 [Compound 86, N-(3-methoxyphenyl)-1-(4-(methylsulfonyl)benzyl)-1H-indazole-3-carboxamide]",< 200
20,"O=C(Nc1ccc2c(c1)OCO2)c1nn(Cc2ccccc2)c2ccccc12 [Compound 87, N-(benzo[d][1,3]dioxol-5-yl)-1-benzyl-1H-indazole-3-carboxamide]",< 200
21,"CS(=O)(=O)c1ccc(Cn2nc(C(=O)Nc3ccc(Cl)cc3)c3ccccc32)cc1 [Compound 89, N-(4-chlorophenyl)-1-(4-(methylsulfonyl)benzyl)-1H-indazole-3-carboxamide]",201 to 300
22,"CC(C)c1ccc(Cn2nc(C(=O)Nc3ccc(S(C)(=O)=O)cc3)c3ccccc32)cc1 [Compound 91, 1-(4-isopropylbenzyl)-N-(4-(methylsulfonyl)phenyl)-1H-indazole-3-carboxamide]",< 200
23,"O=C(Nc1ccc2c(c1)OCO2)c1nn(Cc2ccc(C(=O)N3CCCCC3)cc2)c2ccccc12 [Compound 93, N-(benzo[d][1,3]dioxol-5-yl)-1-(4-(piperidine-1-carbonyl)benzyl)-1H-indazole-3-carboxamide]",< 200
24,"CS(=O)(=O)c1ccc(Cn2nc(C(=O)Nc3ccc(F)cc3)c3ccccc32)cc1 [Compound 94, N-(4-fluorophenyl)-1-(4-(methylsulfonyl)benzyl)-1H-indazole-3-carboxamide]",< 200
25,"CS(=O)(=O)c1ccc(Cn2nc(-c3nc4ccc(Cl)cc4o3)c3ccccc32)cc1 [Compound 95, 6-chloro-2-(1-(4-(methylsulfonyl)benzyl)-1H-indazol-3-yl)benzo[d]oxazole]",< 200
26,"CC(C)c1cccc(NC(=O)c2nn(Cc3ccc(S(C)(=O)=O)cc3)c3ccccc23)c1 [Compound 96, N-(3-isopropylphenyl)-1-(4-(methylsulfonyl)benzyl)-1H-indazole-3-carboxamide]",< 200
